Reference: PMC8253140 (Drug Delivery, 2017)
Read-outs that look alike come from different tables or passages of the source. Residues, ends and D or L forms follow the SMILES beside them. No end group written: not given here. *: point of attachment. Paclitaxel(2'-O-succinyl) = CC(=O)O[C@H]1C(=O)[C@@]2(C)[C@H]([C@H](OC(=O)c3ccccc3)[C@]3(O)C[C@H](OC(=O)[C@H](OC(=O)CCC(=O)*)[C@@H](NC(=O)c4ccccc4)c4ccccc4)C(C)=C1C3(C)C)[C@]1(OC(C)=O)CO[C@@H]1C[C@@H]2O

Tests used:
[1] = tested on: A549 cells; assay: Cellular uptake assay (intracellular drug accumulation); type: cell-based; conditions: 20 μM, incubation 15 min to 4 h, UPLC
Experimental: The cellular uptake experiment was implemented basing on the protocol designed by Meng with some modifications (Meng et al., [2011]). Briefly, A549 and A549T cells were cultivated in chambered 24-well plates with 5% CO2 at 37 °C for 48 h. Then, the adherent cells were washed twice with PBS. Each of the three drugs was diluted in cell medium at concentrations of 10 μM and 20 μM and added to the chambers. The cells were incubated for 2 h and washed four times with PBS after incubation. After that, the cells were scraped from the wells and quantitatively transferred to Eppendorf centrifuge tubes. The resulting cell/saline suspensions were sonicated for 20 cycles of 2 s each with 2 s of rest between each cycle using a probe sonicator. The lysed cell solution was centrifuged at 7000 g for 30 min at 4 °C. Then, 100 μL of the supernatant was withdrawn carefully and tested with UPLC (BEH C18, 1.7 μm, 2.1 × 50 mm). The flow rate was 0.3 mL/min, and the mobile phase consisted of 55% solvent A (PBS, pH = 5) and 45% solvent B (acetonitrile). To further test the change in cellular uptake against incubation time, the drugs (20 μM) were added to the cells, and the cells were then incubated for different times, ranging from 15 min to 4 h. The other steps of the experiment were performed as described above.

[2] = tested on: A549 cells; assay: Cytotoxicity study, MTT colorimetric assay; conditions: for IC50 value as % of the IC50 of PTX: 24 h, GraphPad Prism, p < 0.01 vs PTX
Experimental: The inhibitory activities of the drug samples on cell growth were evaluated using a 3-(4,5-dimethylthiazol-2-yl)-2,5-diphenyltetrazolium bromide (MTT) colorimetric assay. A549 and A549T cells were harvested by trypsinization and resuspended at a concentration of 2 × 10^4 cells/mL in fresh culture medium. Then, the cells were seeded at a density of 5000 cells per well in 96-well plates. […] The concentration of the drugs ranged from 0.1 μM to 100 μM. After 24 h of incubation, the drug-containing media were abandoned, and 20 μL of MTT (5 mg/mL) solution was added to each well. The plate was incubated for an additional 4 h, and then, […] of DMSO was added to each well to dissolve any formed purple formazan crystals. The plates were vigorously shaken before measuring the relative color intensity. The absorbance at 570 nm of each well was measured with a plate reader.

[3] = tested on: A549T cells; assay: Cytotoxicity study, MTT colorimetric assay; type: cell-based; conditions: for IC50 value as % of the IC50 of PTX: 24 h, GraphPad Prism, p < 0.01 vs PTX
Experimental: The inhibitory activities of the drug samples on cell growth were evaluated using a 3-(4,5-dimethylthiazol-2-yl)-2,5-diphenyltetrazolium bromide (MTT) colorimetric assay. A549 and A549T cells were harvested by trypsinization and resuspended at a concentration of 2 × 10^4 cells/mL in fresh culture medium. Then, the cells were seeded at a density of 5000 cells per well in 96-well plates. […] The concentration of the drugs ranged from 0.1 μM to 100 μM. After 24 h of incubation, the drug-containing media were abandoned, and 20 μL of MTT (5 mg/mL) solution was added to each well. The plate was incubated for an additional 4 h, and then, 200 mL of DMSO was added to each well to dissolve any formed purple formazan crystals. The plates were vigorously shaken before measuring the relative color intensity. The absorbance at 570 nm of each well was measured with a plate reader.

[4] = tested on: A549 cells; assay: Cell apoptosis detection, annexin V-FITC/PI flow cytometry; type: cell-based; conditions: 10 μM, 48 h, triplicate
Experimental: (§1) Cell apoptosis was determined by an annexin V-FITC/PI assay. The externalization of phosphatidylserine, a result of early stage apoptosis, was detected by FITC-annexin V protein staining, and the membrane damage due to late-stage apoptosis was detected by the binding of PI to nuclear DNA. Briefly, 2 × 10^5 A549 and A549T cells were plated in 6-well plates and incubated for 24 h. After exposure to the different drugs at a concentration of 10 μM for 48 h, the cells were harvested by trypsinization, washed in PBS twice and incubated in the dark for 10 min at room temperature in 500 μL of binding buffer containing annexin V-FITC (1 μg/mL) and PI (1 μg/mL). The cells were immediately analyzed by flow cytometry (Becton Dickinson, Franklin Lakes, NJ). The fluorescence intensity of annexin V-FITC was measured at an excitation/emission wavelength of 488/530 nm and that of PI was measured at an excitation/emission wavelength of 488/617 nm. Approximately 10 000 cells were analyzed in each of the samples. Each assay was repeated in triplicate.

[5] = tested on: A549T cells; assay: as above; type: cell-based; conditions: 10 μM, 48 h, triplicate
Experimental: as §1

[6] = tested on: A549T cells; assay: Mitochondrial membrane potential (Δψm) determination, JC-1 flow cytometry; type: cell-based; conditions: 10 μM, 48 h, triplicate
Experimental: Changes in the mitochondrial membrane potential (Δψm) were detected using JC-1 and analyzed with flow cytometry. Briefly, A549 and A549T cells were seeded at a density of 1 × 10^5 cells/mL in 6-well plates and exposed to the drugs (10 μM) for 48 h. The control experiments were performed by adding only culture medium. Then, the cells were harvested by trypsinization, washed in PBS twice, incubated with JC-1 ([…]) at 37 °C for 10 min in the dark, and finally analyzed by flow cytometry (Becton Dickinson, Franklin Lakes, NJ). Each assay was repeated in triplicate. JC-1 accumulates in mitochondria that have a high membrane potential and then dimerizes due to the high local concentrations achieved. Dimerized JC-1 emits red fluorescence, while monomeric JC-1 emits green fluorescence. The results are expressed as a ratio of red to green fluorescence.

[7] = tested on: A549T cells; type: cell-based; conditions: 5 μM, 48 h, triplicate
Experimental: After that, the cells were harvested by trypsinization, washed in PBS twice, and fixed in 70% cold ethanol for 24 h at 4 °C. The fixed cells were washed in cold PBS and then resuspended in 0.5 mL of PBS containing 50 μg/mL PI, 0.1% Triton-X-100, 0.1% sodium citrate, and 100 μg/mL RNase. After incubation at 4 °C in the dark for 30 min, the fluorescence-activated cells were sorted. The cellular DNA content was analyzed by flow cytometry (Becton Dickinson, Franklin Lakes, NJ). Each analysis contained at least 10 000 cells. […] The percentages of cells in different cell cycle phases were then recorded. Each experiment was performed in triplicate, and the results were expressed as the mean ± SD.

[8] = tested on: A549 tumor; type: in vivo, BALB/c nude mice; conditions: A549 tumor-bearing nude mice, 1000 μM, 100 μL, peritumoral injection three times over 8 d, six mice per group; for decrease of tumor volume compared with PTX: from 22 to 30 d; for tumor inhibition rate: tumors dissected and weighed after 24 or 30 d
From the text: (§2) The protocol to evaluate the in vivo antitumor efficacy of the PTX-CPP conjugates was approved by the ethics committee of Fudan University. Four-week-old female BALB/c nude mice were purchased and housed in the Animal Care Facilities in the School of Pharmacy, Fudan University. BALB/c mice bearing subcutaneous tumors were used as an animal model for the evaluation of the anticancer activities of PTX-LMWP and PTX-TAT. The subcutaneous tumor xenograft model was established by inoculating 2 × 10^6 A549 or A549T cells (in 100 μL of cell culture medium) into the subcutaneous tissue of the armpit of the right anterior limb (Gu et al., [2014]). Tumor size was measured with Vernier calipers for the largest (length) and smallest (width) superficial visible diameters of the protruding tumor mass through the skin. Tumor volumes were calculated according to the following formula: volume = 0.52 × W^2×L, where W and L represent the width and the length, respectively (Lee et al., [2011]). The drugs were administered 2 weeks after tumor implantation, when the size of the tumors reached approximately 100–150 mm^3. […] Each experimental group contained six mice. The mice were treated (100 μL volume) three times over 8 d via peritumoral injection. Tumor volumes were measured at 2-d intervals. At the end of the experiment, the mice were sacrificed, and necropsies were performed. The tumors were removed, weighed and fixed with formalin.

[9] = tested on: A549T tumor; type: in vivo, BALB/c nude mice; conditions: 1000 μM; for tumor growth (tumor volume) compared with the control: A549T tumor-bearing nude mice, 100 μL, peritumoral injection three times over 8 d; for tumor inhibition rate: mouse, in vivo
From the text: as §2

| Compound | cellular uptake against incubation time [1] | IC50 value as % of the IC50 of PTX ([2]; A549 cells, MTT) | IC50 value as % of the IC50 of PTX ([3]; A549T cells, MTT) | IC50 value compared with PTX-TAT ([3]; A549T cells, MTT, p < 0.01) | percentage of late apoptotic cells (PI+/annexin V+) [4] | percentage of early apoptotic cells (PI−/annexin V+) [5] | percentage of late apoptotic cells (PI+/annexin V+) [5] | effect on mitochondrial membrane potential (Δψm), ratio of red to green JC-1 fluorescence [6] | effect on cell-cycle distribution [7] | decrease of tumor volume compared with PTX [8] | tumor inhibition rate [8] | tumor growth (tumor volume) compared with the control [9] | tumor inhibition rate [9] | toxicity of the CPPs alone (cell viability) ([2]; A549 cells, MTT, same molar concentrations as PTX) | toxicity of the CPPs alone (cell viability) ([3]; A549T cells, MTT, same molar concentrations as PTX) | toxicity of the CPPs alone (cell viability) [2] | toxicity of the CPPs alone (cell viability) [3] |
| --- | --- | --- | --- | --- | --- | --- | --- | --- | --- | --- | --- | --- | --- | --- | --- | --- | --- |
| CC(=O)O[C@H]1C(=O)[C@@]2(C)[C@H]([C@H](OC(=O)c3ccccc3)[C@]3(O)C[C@H](OC(=O)[C@H](OC(=O)CCC(=O)N[C@H](C(=O)N[C@@H](CO)C(=O)N[C@@H](CCCNC(=N)N)C(=O)N[C@@H](CCCNC(=N)N)C(=O)N[C@@H](CCCNC(=N)N)C(=O)N[C@@H](CCCNC(=N)N)C(=O)N[C@@H](CCCNC(=N)N)C(=O)N[C@@H](CCCNC(=N)N)C(=O)NCC(=O)NCC(=O)N[C@@H](CCCNC(=N)N)C(=O)N[C@@H](CCCNC(=N)N)C(=O)N[C@@H](CCCNC(=N)N)C(=O)N[C@@H](CCCNC(=N)N)C(=O)O)C(C)C)[C@@H](NC(=O)c4ccccc4)c4ccccc4)C(C)=C1C3(C)C)[C@]1(OC(C)=O)CO[C@@H]1C[C@@H]2O [PTX-LMWP] ({Paclitaxel(2'-O-succinyl)}-VSRRRRRRGGRRRR-OH; N-terminus and C-terminus assumed) | stronger than that of PTX-TAT | 33.5% | 21.5% | remarkably lower than that of PTX-TAT | 84.03% | 38.10% | 55.75% | significant breakdown of the Δψm compared with the PTX-TAT treatment | limited generation of tetraploids but a large number of cells in diploid-S phase cell-cycle arrest | 1.45–1.80 fold | 62.92% | considerable antitumor effect | 43.13% | – | – | – | – |
| N=C(N)NCCC[C@H](NC(=O)[C@H](CCCNC(=N)N)NC(=O)[C@H](CCCNC(=N)N)NC(=O)[C@H](CCC(N)=O)NC(=O)[C@H](CCCNC(=N)N)NC(=O)[C@H](CCCNC(=N)N)NC(=O)[C@H](CCCCN)NC(=O)[C@H](CCCCN)NC(=O)[C@H](CCCNC(=N)N)NC(=O)CNC(=O)[C@H](Cc1ccc(O)cc1)NC(=O)CNC(=O)CNC(=O)CNC(=O)[C@@H](N)CS)C(=O)O [TAT, reference compound] | – | – | – | – | – | – | – | – | – | – | – | – | – | No harmful effect | No harmful effect | – | – |
| VSRRRRRRGGRRRR [LMWP, reference compound] | – | – | – | – | – | – | – | – | – | – | – | – | – | – | – | No harmful effect | No harmful effect |
| CC(=O)O[C@H]1C(=O)[C@@]2(C)[C@H]([C@H](OC(=O)c3ccccc3)[C@]3(O)C[C@H](OC(=O)[C@H](OC(=O)CCC(=O)NCCN4C(=O)CC(SC[C@H](N)C(=O)NCC(=O)NCC(=O)NCC(=O)N[C@@H](Cc5ccc(O)cc5)C(=O)NCC(=O)N[C@@H](CCCNC(=N)N)C(=O)N[C@@H](CCCCN)C(=O)N[C@@H](CCCCN)C(=O)N[C@@H](CCCNC(=N)N)C(=O)N[C@@H](CCCNC(=N)N)C(=O)N[C@@H](CCC(N)=O)C(=O)N[C@@H](CCCNC(=N)N)C(=O)N[C@@H](CCCNC(=N)N)C(=O)N[C@@H](CCCNC(=N)N)C(=O)O)C4=O)[C@@H](NC(=O)c4ccccc4)c4ccccc4)C(C)=C1C3(C)C)[C@]1(OC(C)=O)CO[C@@H]1C[C@@H]2O (stereo partly drawn) [PTX-TAT] | – | 47.2% | 39.5% | – | 72.57% | 23.15% | 54.20% | – | higher tetraploid-G2/M phase arrest than those incubated with PTX | 1.51–1.77 fold | 63.32% | considerable antitumor effect | 42.47% | – | – | – | – |
